pKi: −log10 of the molar value. Like-named read-outs stand apart in the source and are kept apart here.
What was measured:
[1] = tested on: intestinal microsomal heme oxygenase; experiment: Intestinal microsomal heme oxygenase activity after a single dose to rats; format: in vivo, rat; details: for Heme Oxygenase Activity in the Gut, Average: control 2.70 + 0.09
Experimental: (§1) Rats were maintained on Standard Purina Rodent Chow (St. Louis, Mo.), and were allowed to acclimatize to a light-cycled room (12 hr light/dark cycle) for at least one week prior to study. SnPP was dissolved in a small volume (0.2 ml/ml final volume) of 0.2N Na3 PO4 12H2 O, adjusted to pH 7.4 with 1M HCl and made up to a final volume with 0.9% NaCl under subdued light. SnPP was administered either subcutaneously or by gavage in a single dose of 25 umoles/kg body weight (4.0 ml/kg body weight). Control rats received an equivalent volume of diluent. All rats were allowed free access to food and water.
(§2) Animals were sacrificed at the times indicated in the legend to the Table and in the above and following descriptions of the Figures, and then exhaustively perfused in situ with ice-cold 0.9% NaCl through the left ventricle. The small intestine was cut at the pyloric junction and the entire length of the intestine irrigated in situ with 30 ml of ice-cold 0.9% NaCl to remove intestinal contents. Beginning at 5 cm, a 20 cm segment of small intestine was excised and irrigated once more with 30 ml of saline. The mucosa was then gently scraped off with a stainless steel scalpel and placed in ice-cold potassium phosphate buffer (0.1M, pH 7.4), containing sucrose (0.25M), 20% glycerin (v/v), trypsin inhibitor (5 mg/ml), and heparin (3 U/ml), as described by Stohs et al, Arch. Biochem Biophys. 177: 105-116 (1976). Following sonication and homogenization, intestinal microsomes were then prepared by differential centrifugation as described in Rosenberg et al, Biochem. Pharmacol. 38: 1155-1161 (1988). The microsomal pellet was rinsed and resuspended in 1.5 ml of potassium phosphate buffer (0.1M, pH 7.4) to a protein concentration of approximately 5-10 mg/ml. Microsomes were freshly prepared on a daily basis for all subsequent assays. The activity of heme oxygenase was determined as described in Maines et al, J. Biol. Chem. 250: 4171-4178 (1975), using the 105,000xg supernatant fraction derived from normal rat liver as the source of biliverdin reductase, and a hemin concentration of 50 uM. Bilirubin formation was calculated using an absorption coefficient of 40 mm^1 cm^1 between 464 and 530 nm (See Maines et al, Proc. Natl. Acad. Sci. USA 71: 4293-4297 (1974)). Protein content was determined by method of Lowry et al, J. Biol. Chem. 193: 265-275 (1951) suing bovine serum albumin as a standard.
A single does of SnPP (25 umoles/kg b.w.) was administered either orally or parenterally to rats, and heme oxygenase levels were determined in the small intestinal epithelium at the times indicated in FIG. 1. This dose was selected to match that previously used by other investigators (See Hintz et al, Ped. Res. 23: 50-53 (1988)). Following oral treatment, heme oxygenase activity was rapidly (within 3 hours) inhibited (50% of controls), but the levels returned to normal within 16-24 hours after treatment.

[2] = rat, in vivo, po
Experimental: as §1
All tin analyses were performed on Zeeman/5000 atomic absorption spectrophotometer equipped with an HGA-500 graphite furnace Perkin-Elmer Corp., Norwalk, Conn.). The graphite furnace utilized the L'vov platform (See Slavin et al, At. Spectrosc. 2: 137-145 (1981)) with an appropriate wavelength (286.4 nm) and instrumental operating conditions as recommended by the manufacturer and optimized in our laboratory for tin measurement. All tin analyses included magnesium nitrate and ammonium phosphate in 20% nitric acid as a matrix modified.
For Table II: SnPP was adminsitered to rats in a single dose (25 umoles/kg body weight) either orally or subcutaneously. Tissue tin levels were determined 48 hours later by graphite furnace atomic absorption spectroscopy. […]

[3] = tested on: intestinal heme oxygenase; details: in vitro or in vivo after administration of SnPP; Hintz et al 1988; cited from earlier work
[4] = tested on: intestinal microsomal heme oxygenase; experiment: Competitive inhibition of intestinal microsomal heme oxygenase in vitro; format: biochemical, rat
Experimental: SnPP (o) was added to intestinal microsomes at concentrations of […]. The heme concentration was 50 uM. Heme oxygenase activity was determined as described below under Materials and Methods. Each point represents the mean of at least 3 individual experiments. Similar results obtain for other metalloporphyrins within the scope of the present invention.
as §2
This is similar to the Km reported for heme in hepatic and splenic microsomes (See Kappas et al, J. Clin. Invest. 77: 335-339 (1986); Yoshinaga et al, J. Biol. Chem. 257: 7778-7785 (1982)).

[5] = SnPP 25 umoles/kg single oral dose, rat

For chromium mesoporphyrin [CrMP], the “Heme Oxygenase Activity in the Gut, Average” value ([1]; 3 hours after oral 25 umol/Kg CrMP) was 0.64 + 0.38, the “Heme Oxygenase Activity in the Gut, Average” value ([1]; 16 hours after oral 25 umol/Kg CrMP) was 1.04 + 0.02 and the “Heme Oxygenase Activity in the Gut, Average” value ([1]; 24 hours after oral 25 umol/Kg CrMP) was 1.85 + 0.07. For the same molecule, the “Heme Oxygenase Activity in the Gut, Average” value ([1]; 48 hours after oral 25 umol/Kg CrMP) was 2.57 + 0.07.

In the case of `C=Cc1c2[n-]c(c1C)/C=c1\[n-]/c(c(C)c1C=C)=C\c1[n-]c(c(CCC(=O)O)c1C)/C=c1\[n-]c(c(C)c1CCC(=O)O)=C2.[Sn+4]` [SnPP, tin protoporphyrin], the “absorption from the gastrointestinal tract” value [2] is given as “very low degree of absorption”, the “inhibition of intestinal heme oxygenase” value [3] is given as “no inhibition” and the “heme oxygenase activity in small intestinal epithelium” value [1, 5] is given as 50 % of controls. For the same molecule, the “time for heme oxygenase levels to return to normal” value [1, 5] was 16 to 24 h, the “time to inhibition of heme oxygenase activity” value [1, 5] was ≤ 3 h and the “inhibition of heme oxygenase activity” value ([1]; SnPP 25 umoles/kg single parenteral (subcutaneous) dose, rat) was 65 % inhibition. For the same molecule, the “persistence of decreased heme oxygenase activity” value ([1]; SnPP 25 umoles/kg single parenteral dose, rat) was “at least 48 hours”, the Km ([4]; SnPP 0.05 uM, intestinal microsomes, read-out: Km for heme in presence of SnPP) was 23.9 µM and the Km ([4]; SnPP 0.1 uM, intestinal microsomes, read-out: Km for heme in presence of SnPP) was 56.2 µM. The “increase in the Km for heme” value ([4]; SnPP 0.05 and 0.1 uM) was 3- to 7 fold, the “type of inhibition of enzyme activity” value ([4]; SnPP 0.05 and 0.1 uM added to incubation mixtures) was “marked competitive inhibition” and the pKi ([4]; intestinal microsomes) was 7.77.

Molecule `C=CC1=C(C)c2cc3[n-]c(cc4[n-]c(cc5nc(cc1n2)C(C)=C5C=C)c(C)c4CCC(=O)O)c(CCC(=O)O)c3C.[Fe+2]` [heme, reference compound] has a Km ([4]; intestinal microsomes, no inhibitor, linear regression, read-out: apparent Km for the substrate heme) of 8.21 µM.
